Here are results for 5 compounds from ChEMBL document CHEMBL1201862, “PubChem BioAssay data set” (2004).

Calls of active or inactive are those of the source. Bounds are passed on as bounds.

For one assay, the system named is Streptococcus. The assay is described as follows: Luminescence Microorganism-Based Dose Response Follow up to Identify Compounds Cytotoxic to Streptococcus. [Related pubchem assays: 1677 (Project Summary), 1915, 1914, 1902 (Retest at Dose), 1900 (Counter Screen), 1662 (Primary HTS)]. The class given is functional, organism-based.
For assay [1], the target named is T1, Neuropeptide Y receptor type 2 (Homo sapiens, UniProt P49146).
T1 sequence (P49146 whole entry): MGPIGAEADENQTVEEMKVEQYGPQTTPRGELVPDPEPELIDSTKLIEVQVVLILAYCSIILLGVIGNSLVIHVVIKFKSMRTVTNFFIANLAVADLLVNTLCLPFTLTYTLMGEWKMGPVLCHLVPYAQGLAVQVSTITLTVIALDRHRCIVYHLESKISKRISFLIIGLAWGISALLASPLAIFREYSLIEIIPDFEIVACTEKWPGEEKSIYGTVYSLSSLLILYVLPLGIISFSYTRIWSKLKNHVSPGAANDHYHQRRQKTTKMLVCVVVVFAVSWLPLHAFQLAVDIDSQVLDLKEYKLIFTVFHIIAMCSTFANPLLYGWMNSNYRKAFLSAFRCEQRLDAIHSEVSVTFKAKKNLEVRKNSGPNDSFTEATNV
Description: Fluorescence-based counterscreen for agonists of NPY-Y1: cell-based high-throughput dose response assay for agonists of NPY-Y2. It counts as functional.

A further assay has as its system HEK293. Description: Fluorescence-based counterscreen for potentiators or agonists of NPY-Y1: cell-based high-throughput dose response assay for inhibitors of cyclic nucleotide gated ion channel (CNGC) activity. In this assay, the parental HEK293 cell line transfected with a cyclic-nucleotide gated ion channel (CNGC)-based cAMP sensor is used to measure inhibition of isoproterenol-induced CNGC …. The class given is functional. The conditions noted are these: Homo sapiens.

In assay [2] the target is T2, Neuropeptide Y receptor type 1 (Homo sapiens, UniProt P25929).
T2 sequence (P25929 whole entry): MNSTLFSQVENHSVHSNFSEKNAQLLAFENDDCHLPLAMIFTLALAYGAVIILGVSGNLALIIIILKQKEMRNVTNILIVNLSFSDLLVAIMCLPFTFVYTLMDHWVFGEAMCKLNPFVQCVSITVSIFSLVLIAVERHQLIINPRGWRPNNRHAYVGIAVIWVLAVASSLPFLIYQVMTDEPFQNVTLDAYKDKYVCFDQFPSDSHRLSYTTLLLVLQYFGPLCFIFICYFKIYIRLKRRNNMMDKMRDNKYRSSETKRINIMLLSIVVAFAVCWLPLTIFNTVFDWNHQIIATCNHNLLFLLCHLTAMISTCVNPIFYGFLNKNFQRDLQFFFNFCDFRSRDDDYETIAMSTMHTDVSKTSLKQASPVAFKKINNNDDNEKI
Description: Fluorescence-based dose response cell-based high-throughput screening assay for agonists of NPY-Y1. [Related pubchem assays: 1697 (Screening assay (NPY-Y1 agonists).), 1359 (Screening assay (NPY-Y2 potentiators or agonists).), 1304 (Screening assay (NPY-Y1 potentiators or agonists).), 1704 (Screening assay (CNGC inhibitors).), 1791 (Summary AID.)]. It counts as functional.

Assay [3] has as its target Peroxisome proliferator-activated receptor gamma (Homo sapiens, UniProt P37231). Description: PPARg ligand-binding domain binders, dose response, PPARg partial agonist project, biochemical, TR-FRET, LanthaScreen (AID 504446).
For another assay, the target named is Bcl-2-like protein 10 (Homo sapiens, UniProt Q9HD36). Description: displacers of TR3 peptide from Bcl-B, primary screen, selectivity assay for Bfl-1 inhibitor project, biochemical, fluorescence polarization, FITC-TR3 peptide (AID 748).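 Also: fluorescence polarization from a fluorescein-labelled TR3 peptide binding purified Bcl-B.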
Bcl-2-like protein 10, sequence (Q9HD36 whole entry): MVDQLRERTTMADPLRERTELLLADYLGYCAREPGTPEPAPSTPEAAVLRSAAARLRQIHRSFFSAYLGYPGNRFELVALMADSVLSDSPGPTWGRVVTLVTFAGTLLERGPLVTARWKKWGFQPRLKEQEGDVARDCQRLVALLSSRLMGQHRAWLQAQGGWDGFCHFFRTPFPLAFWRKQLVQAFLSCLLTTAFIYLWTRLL
The next assay has as its target Estrogen receptor beta (Homo sapiens, UniProt Q92731). The assay is described as follows: ERβ–SRC-3 coactivator interaction inhibitors, confirmation, orthogonal assay, biochemical, ELISA, streptavidin-HRP readout (AID 1060).
Assay [4] addresses Induced myeloid leukemia cell differentiation protein Mcl-1 (Homo sapiens, UniProt Q07820). It counts as functional.
Assay [5] concerns the target T3, Tyrosine-protein phosphatase non-receptor type 7 (Homo sapiens, UniProt P35236).
T3 sequence (P35236 whole entry): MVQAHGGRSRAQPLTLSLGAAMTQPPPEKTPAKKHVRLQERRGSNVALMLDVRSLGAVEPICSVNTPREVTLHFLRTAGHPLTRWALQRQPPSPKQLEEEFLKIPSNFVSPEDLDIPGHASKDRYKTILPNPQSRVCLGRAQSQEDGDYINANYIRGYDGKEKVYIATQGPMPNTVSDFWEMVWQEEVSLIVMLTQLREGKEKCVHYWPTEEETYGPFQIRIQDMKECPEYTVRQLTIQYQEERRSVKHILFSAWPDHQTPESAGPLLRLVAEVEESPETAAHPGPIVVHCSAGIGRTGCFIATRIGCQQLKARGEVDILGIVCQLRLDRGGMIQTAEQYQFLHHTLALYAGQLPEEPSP
The assay is described as follows: redox-dependent HePTP inhibition, mechanism study, biochemical, fluorescence (AID 2068). It counts as functional.

A short description of assay [6]: Counterscreen for IDE inhibitors: Luminescence-based cell-based high throughput dose response assay to identify compounds that are cytotoxic to HEK cells. [Related pubchem assays: 434962 (Primary screen (IDE inhibitors in singlicate)), 449730 (Counterscreen (Cytotoxicity in triplicate)), 435028 (Confirmation (IDE inhibitors in triplicate)) …. The conditions noted are these: HEK293. The class given is functional.

Another assay has as its target T4, Insulin-degrading enzyme (Homo sapiens, UniProt P14735).
T4 sequence (P14735 whole entry): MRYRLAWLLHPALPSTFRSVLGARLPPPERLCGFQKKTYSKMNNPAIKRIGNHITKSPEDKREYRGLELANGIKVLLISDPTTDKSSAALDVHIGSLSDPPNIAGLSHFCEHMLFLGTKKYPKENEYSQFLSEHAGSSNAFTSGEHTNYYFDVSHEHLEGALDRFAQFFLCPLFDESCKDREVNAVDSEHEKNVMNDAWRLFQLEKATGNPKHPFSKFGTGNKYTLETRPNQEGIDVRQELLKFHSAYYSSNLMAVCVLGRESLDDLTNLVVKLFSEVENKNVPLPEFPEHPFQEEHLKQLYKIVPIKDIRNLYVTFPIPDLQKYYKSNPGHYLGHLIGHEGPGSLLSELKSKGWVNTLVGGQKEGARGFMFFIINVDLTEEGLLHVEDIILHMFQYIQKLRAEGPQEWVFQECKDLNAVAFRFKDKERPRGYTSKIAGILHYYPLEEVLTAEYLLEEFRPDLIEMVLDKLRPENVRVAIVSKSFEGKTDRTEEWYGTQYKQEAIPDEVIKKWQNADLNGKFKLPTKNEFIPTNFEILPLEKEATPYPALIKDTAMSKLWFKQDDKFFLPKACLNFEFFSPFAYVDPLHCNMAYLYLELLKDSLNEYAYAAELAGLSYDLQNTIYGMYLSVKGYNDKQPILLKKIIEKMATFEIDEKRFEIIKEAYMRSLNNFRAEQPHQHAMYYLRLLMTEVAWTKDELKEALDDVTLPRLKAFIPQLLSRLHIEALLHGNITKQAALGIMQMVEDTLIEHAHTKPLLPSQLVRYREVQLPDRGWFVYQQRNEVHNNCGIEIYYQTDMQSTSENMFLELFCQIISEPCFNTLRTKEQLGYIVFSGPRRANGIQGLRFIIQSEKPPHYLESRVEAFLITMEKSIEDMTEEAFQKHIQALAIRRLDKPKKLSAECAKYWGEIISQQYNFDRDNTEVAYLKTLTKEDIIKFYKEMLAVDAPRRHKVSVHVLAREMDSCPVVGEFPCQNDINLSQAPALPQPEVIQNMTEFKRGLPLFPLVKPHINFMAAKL
Description: Dose Response: Fluorescence polarization-based cell-based high throughput dose response assay for inhibitors of insulin-degrading enzyme (IDE). [Related pubchem assays: 434962 (Primary screen (IDE inhibitors in singlicate)), 449730 (Counterscreen (Cytotoxicity in triplicate)), 435028 (Confirmation (IDE inhibitors in triplicate)), 434984 (Summary …. It counts as functional.

Estrogen receptor beta, sequence (Q92731 whole entry): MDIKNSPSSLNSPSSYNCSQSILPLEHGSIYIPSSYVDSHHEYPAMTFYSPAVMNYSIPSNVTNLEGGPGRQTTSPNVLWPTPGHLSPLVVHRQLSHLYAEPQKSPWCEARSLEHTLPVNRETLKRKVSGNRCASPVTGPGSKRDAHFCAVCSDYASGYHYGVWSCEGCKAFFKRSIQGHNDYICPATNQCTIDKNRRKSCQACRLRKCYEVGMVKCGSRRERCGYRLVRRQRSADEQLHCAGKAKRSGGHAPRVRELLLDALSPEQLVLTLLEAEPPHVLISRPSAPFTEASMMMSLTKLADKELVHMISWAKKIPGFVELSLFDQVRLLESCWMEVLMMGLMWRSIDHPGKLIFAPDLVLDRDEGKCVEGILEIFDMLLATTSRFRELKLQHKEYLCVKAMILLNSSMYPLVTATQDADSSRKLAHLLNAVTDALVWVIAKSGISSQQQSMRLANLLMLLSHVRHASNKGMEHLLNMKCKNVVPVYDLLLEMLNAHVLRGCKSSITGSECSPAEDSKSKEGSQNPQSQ
Peroxisome proliferator-activated receptor gamma, sequence (P37231 whole entry, the tested form may be a part): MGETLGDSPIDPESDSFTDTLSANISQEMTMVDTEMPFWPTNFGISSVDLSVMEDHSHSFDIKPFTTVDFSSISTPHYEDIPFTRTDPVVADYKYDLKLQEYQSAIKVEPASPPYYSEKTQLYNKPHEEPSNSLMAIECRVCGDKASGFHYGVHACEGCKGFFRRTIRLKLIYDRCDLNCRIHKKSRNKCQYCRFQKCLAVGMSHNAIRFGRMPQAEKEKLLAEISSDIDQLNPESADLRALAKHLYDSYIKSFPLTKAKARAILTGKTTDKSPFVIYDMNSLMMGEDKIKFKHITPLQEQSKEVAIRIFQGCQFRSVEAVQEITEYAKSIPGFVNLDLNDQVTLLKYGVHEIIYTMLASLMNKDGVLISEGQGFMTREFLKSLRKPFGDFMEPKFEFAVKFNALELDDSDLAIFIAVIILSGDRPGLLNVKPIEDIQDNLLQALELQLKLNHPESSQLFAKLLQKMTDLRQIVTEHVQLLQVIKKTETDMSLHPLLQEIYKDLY
Induced myeloid leukemia cell differentiation protein Mcl-1, sequence (Q07820 whole entry): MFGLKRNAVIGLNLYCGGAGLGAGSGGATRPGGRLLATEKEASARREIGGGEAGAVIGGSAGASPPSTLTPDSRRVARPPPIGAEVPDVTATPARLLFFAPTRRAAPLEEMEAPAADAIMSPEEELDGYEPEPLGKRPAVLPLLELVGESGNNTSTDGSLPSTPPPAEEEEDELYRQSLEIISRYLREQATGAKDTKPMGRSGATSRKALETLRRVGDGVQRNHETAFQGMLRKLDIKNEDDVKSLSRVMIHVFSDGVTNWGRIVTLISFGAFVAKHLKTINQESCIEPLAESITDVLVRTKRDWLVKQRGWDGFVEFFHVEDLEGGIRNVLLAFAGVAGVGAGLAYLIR

Take `CN1C(=O)/C(=C\c2cccn2-c2ccc3ccccc3c2)C(=O)NC1=S`: the EC50 in the assay with Streptococcus is > 260 µM (not active).

As to `CC1CC(C)CN(CCCNC(=O)c2cc3c(O)nc4ccccc4c3n2C)C1` (stereo unspecified), the EC50 in [1] and in assay [2] was > 35.4 µM (not active) in each case. Besides, the half-inhibitory concentration (IC50) in the assay with HEK293 is on record as 19.8 µM (not active).

Turning to `O=C(O)CCN1C(=O)/C(=C/c2ccc(C(F)(F)F)cc2C(F)(F)F)SC1=S`, the half-inhibitory concentration (IC50) in assay [3] is 2 µM (active).

Take `O=C(NCc1ccccn1)c1ccc2nc(-c3ccco3)c(-c3ccco3)nc2c1`: the IC50 was 9.92 µM (active) at Bcl-2-like protein 10, 4.9 µM (not active) against Estrogen receptor beta, 2.28 µM (active) in assay [4] and 3.99 µM (active) in [5].

With `CN(C)c1ccc(/C=C2\SC(N3CCCCC3)=NC2=O)cc1`, the results for the IC50 (in assay [6]; at Insulin-degrading enzyme) were 23 µM (not active) and 17.9 µM (not active), respectively.
